We go through three compounds from patent EP2457441A1, “Insecticide composition” (priority 2010, dated 2012).

The conditions of series [1]: species and route not given; cited from earlier work.
A short description of another series: Toxicity (LD50/DL50). The conditions noted are these: comparison of LD50 values.

Take `COC(C)(C)CCC[C@H](C)C/C=C/C(C)=C/C(=O)OC(C)C` [S-METHOPRENE]: in series [1], the DL50 result is reported as “above 10000 mg/kg”. In the case of `CCOc1ccc(C(C)(C)COCc2cccc(Oc3ccccc3)c2)cc1` [ETOFENPROX], in series [1], the LD50 (in general, the dose at which mortality reaches 50%) is 42880 mg/kg. In addition, in the series “Toxicity (LD50/DL50)”, the “toxicity relative to common salt” value is listed as “about 15 times less” and the “toxicity relative to sugar” value is “two times less”. For the compound common salt, in series [1], the LD50 is given as 3000 mg/kg.
